Columns and labels:
[1] = Inhibition of His-tagged human RBP4- biotin immobilized TTR (unknown origin) protein-protein interaction in presence of retinol by ELISA
[2] = Reduction in blood RBP4 level in C57BL/6J mouse assessed as RBP4 leve in blood at 0.3 mg/kg, po after 4 hrs by ELISA (reference value: 100 +/- 3.9%); type: functional; set-up: scale not given: the % may be the effect or the level left
[3] = Inhibition of His-tagged mouse RBP4- biotin immobilized TTR (unknown origin) protein-protein interaction in presence of retinol by ELISA
[4] = Reduction in blood RBP4 level in C57BL/6J mouse assessed as RBP4 leve in blood at 0.3 mg/kg, po after 7 hrs by ELISA (reference value: 100 +/- 3.9%); type: functional; set-up: scale not given: the % may be the effect or the level left
[5] = Reduction in blood RBP4 level in C57BL/6J mouse assessed as RBP4 leve in blood at 0.3 mg/kg, po after 24 hrs by ELISA (reference value: 100 +/- 3.9%); type: functional; set-up: scale not given: the % may be the effect or the level left
[6] = Reduction in blood RBP4 level in C57BL/6J mouse assessed as RBP4 leve in blood at 1 mg/kg, po after 4 hrs by ELISA (reference value: 100 +/- 9.8%); type: functional; set-up: scale not given: the % may be the effect or the level left
[7] = Reduction in blood RBP4 level in C57BL/6J mouse assessed as RBP4 leve in blood at 1 mg/kg, po after 7 hrs by ELISA (reference value: 100 +/- 9.8%); type: functional; set-up: scale not given: the % may be the effect or the level left
[8] = Reduction in blood RBP4 level in C57BL/6J mouse assessed as RBP4 leve in blood at 1 mg/kg, po after 24 hrs by ELISA (reference value: 100 +/- 9.8%); type: functional; set-up: scale not given: the % may be the effect or the level left
[9] = Reduction in blood RBP4 level in C57BL/6J mouse assessed as RBP4 leve in blood at 3 mg/kg, po after 4 hrs by ELISA (reference value: 100 +/- 12%); type: functional; set-up: scale not given: the % may be the effect or the level left
[10] = Reduction in blood RBP4 level in C57BL/6J mouse assessed as RBP4 leve in blood at 3 mg/kg, po after 7 hrs by ELISA (reference value: 100 +/- 12%); type: functional; set-up: scale not given: the % may be the effect or the level left
[11] = Reduction in blood RBP4 level in C57BL/6J mouse assessed as RBP4 leve in blood at 3 mg/kg, po after 24 hrs by ELISA (reference value: 100 +/- 12%); type: functional; set-up: scale not given: the % may be the effect or the level left
[12] = Reduction in blood RBP4 level in C57BL/6J mouse assessed as RBP4 leve in blood at 10 mg/kg, po after 4 hrs by ELISA (reference value: 100%); type: functional; set-up: scale not given: the % may be the effect or the level left
[13] = Reduction in blood RBP4 level in C57BL/6J mouse assessed as RBP4 leve in blood at 10 mg/kg, po after 7 hrs by ELISA (reference value: 100%); type: functional; set-up: scale not given: the % may be the effect or the level left
[14] = Reduction in blood RBP4 level in C57BL/6J mouse assessed as RBP4 leve in blood at 10 mg/kg, po after 24 hrs by ELISA (reference value: 100%); type: functional; set-up: scale not given: the % may be the effect or the level left
Mus musculus = assay: Reduction in blood RBP4 level in C57BL/6J mouse assessed as RBP4 leve in blood at 0.3 to 10 mg/kg, po after 4 to 24 hrs hrs by ELISA (reference value: 100%); type: functional, organism-based; settings: dose 0.3-10 mg/kg, time 4-24 hrs, DDE = dose-dependent effect
[15] = Cmax in ICR mouse at 1 mg/kg, po; type: ADME, organism-based; set-up: dose 1 mg/kg, route po; settings: in vivo
[16] = AUC in ICR mouse at 1 mg/kg, po; type: ADME, organism-based; set-up: dose 1 mg/kg, route po; settings: in vivo
[17] = Oral bioavilability in ICR mouse at 1 mg/kg; type: ADME, organism-based; settings: in vivo

| Compound | IC50 [1] [nM] | IC50 [3] [nM] | other results |
| --- | --- | --- | --- |
| O=C(O)CO[C@H]1CCN(c2cc(C(F)(F)F)cc(C(F)(F)F)c2)C1 | 28 | 110 | Activity [2]: 64.6%; Activity [4]: 56.6%; Activity [5]: 75%; Activity [6]: 51.6%; Activity [7]: 42.4%; Activity [8]: 53%; Activity [9]: 50.4%; Activity [10]: 41.5%; Activity [11]: 43.6%; Activity [12]: 39.5%; Activity [13]: 39.6%; Activity [14]: 37.5%; Activity (Mus musculus): Dde; Cmax [15]: 2910 ng/mL; AUC [16]: 22000 ng·h/mL; bioavailability [17]: 58% |
| COc1cc(N2CCC(OCC(=O)O)C2)cc(C(F)(F)F)c1 (racemic) | 82 | 870 | – |
| O=C(O)COC1CCN(c2cc(Cl)cc(C(F)(F)F)c2)C1 (racemic) | 96 | 420 | – |
| O=C(O)CCc1nc(-c2cc(C(F)(F)F)cc(C(F)(F)F)c2)co1 | 24 | 420 | – |
| O=C(O)COC1CCN(c2cccc(C(F)(F)F)c2F)C1 (racemic) | 240 | 1500 | – |
| O=C(O)CCc1ncc(-c2cc(C(F)(F)F)cc(C(F)(F)F)c2)o1 | 130 | 1200 | – |
| O=C(O)COC1CCN(c2cccc(C(F)(F)F)c2)C1 (racemic) | 520 | 2400 | – |
| O=C(O)CCC1CCN(c2cc(C(F)(F)F)cc(C(F)(F)F)c2)CC1 | 270 | 3800 | – |
| O=C(O)CCc1cnc(-c2cc(C(F)(F)F)cc(C(F)(F)F)c2)o1 | 6000 | > 30000 | – |
| O=C(O)COC1CCN(c2ccc(F)c(C(F)(F)F)c2)C1 (racemic) | 230 | 1600 | – |
| O=C(O)CC1CCN(c2cc(C(F)(F)F)cc(C(F)(F)F)c2)C1 (racemic) | 42 | 300 | – |
| O=C(O)C1CCN(c2cc(C(F)(F)F)cc(C(F)(F)F)c2)C1 (racemic) | 1000 | 5900 | – |
| FC(F)(F)c1cc(N2CCC(OCc3nnn[nH]3)C2)cc(C(F)(F)F)c1 (racemic) | 48 | 270 | – |
| O=C(O)CCC1CN(c2cc(C(F)(F)F)cc(C(F)(F)F)c2)C1 | 40 | 740 | – |
| COC(=O)CO[C@H]1CCN(c2cc(C(F)(F)F)cc(C(F)(F)F)c2)C1 | 150 | 200 | – |
| O=C(O)CCC1CCN(c2cc(C(F)(F)F)cc(C(F)(F)F)c2)C1 (racemic) | 51 | 220 | – |
| O=C(O)COC1CCN(c2cc(C(F)(F)F)cc(C(F)(F)F)c2)C1 (racemic) | 16 | 100 | – |
| O=C(O)COC1CCN(c2cc(F)cc(C(F)(F)F)c2)C1 (racemic) | 190 | 1200 | – |
| O=C(O)CO[C@@H]1CCN(c2cc(C(F)(F)F)cc(C(F)(F)F)c2)C1 | 21 | 130 | Activity [12]: 42.2%; Activity [13]: 40.5%; Activity [14]: 38.6%; Cmax [15]: 2920 ng/mL; AUC [16]: 17900 ng·h/mL; bioavailability [17]: 51% |
